For series [1] the following is noted: administered by subcutaneous infusion; cited from earlier work.
For series [2] the following is noted: oral administration; cited from earlier work.
Series [3] is described as follows: bioavailability when delivered to the duodenum. It counts as in vivo. Particulars: duodenal delivery. An excerpt:
Accordingly, one embodiment of the present invention involves preferential delivery of the desired compound to the duodenum as well as pharmaceutical formulations that achieve duodenal delivery. Duodenal administration can be achieved by any means known in the art. In one of these embodiments, the present compounds can be formulated in an enteric-coated dosage form. Generally, enteric-coated dosage forms are usually coated with a polymer that is not soluble at low pH, but dissolves quickly when exposed to pH conditions of 3 or above. This delivery form takes advantage of the difference in pH between the stomach, which is about 1 to 2, and the duodenum, where the pH tends to be greater than 4.

With `CCCCC[C@H](O)CC[C@@H]1[C@H]2Cc3cccc(OCC(=O)O)c3C[C@H]2C[C@H]1O` [treprostinil sodium], in series [1], the absolute bioavailability is on record as approximately 100%.
With `CCCCC[C@H](O)CC[C@@H]1[C@H]2Cc3cccc(OCC(=O)O)c3C[C@H]2C[C@H]1O` [treprostinil], the absolute oral bioavailability in series [2] is on record as approximately 10%. In series [3], the “bioavailability when delivered to the duodenum” value is recorded as “increased bioavailability”.

The values are drawn from US20120010159A1, “COMBINATION THERAPIES WITH COX-2 INHIBITORS AND TREPROSTINIL” (United Therapeutics Corporation, priority 2010, published 2012).
